Experiments:
Assay type in all cases: in vivo
[1] = test system: diamondback moth (Plutella xylostella); assay: Insecticidal effect on diamondback moth (Test Example 1); conditions: for Insecticidal effect, Test Example 1 / Insecticidal effect (Test Example 1), judged from mortality: diamondback moth; for Insecticidal effect on diamondback moth (Test Example 1), judged grade: mortality judged according to the criterion shown in Test Example 1; for Insecticidal effect (Test Example 1), judged from mortality: judged by the criterion of Test Example 1
Procedure, shortened: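 Triplicate groups of 10 insects: eggs laid on Chinese cabbage seedling by adults, seedling immersed then air-dried, kept at 25° C. Day-6 hatch counts gave mortality, rated by criterion.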

[2] = test system: rice leafroller (Cnaphalocrocis medinalis); assay: Insecticidal effect on rice leafroller (Test Example 3); conditions: 500 ppm, 25° C., humidity 70%; for Insecticidal effect, Test Example 3: rice lamina immersed; for Insecticidal effect, Test Example 3 / Insecticidal effect on rice leafroller (Test Example 3), judged grade: four days after inoculation; for Insecticidal effect on rice leafroller (Test Example 3), judged grade / Insecticidal effect (Test Example 3), judged from mortality: rice lamina dip; for Insecticidal effect on rice leafroller (Test Example 3), judged grade: third-instar larvae; for Insecticidal effect (Test Example 3), judged from mortality: 4 days after inoculation
Procedure, shortened: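 Insecticidal effect is judged by a predefined criterion from dead/alive counts four days after infesting air-dried lamina with third-instar larvae, kept on moistened filter paper at 25° C, 70% humidity.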

[3] = test system: common cutworm (Spodoptera Litura); assay: Insecticidal effect on common cutworm (Test Example 2); conditions: 500 ppm, 25° C.; for Insecticidal effect, Test Example 2: cabbage leaf immersed; for Insecticidal effect, Test Example 2 / Insecticidal effect on common cutworm (Test Example 2), judged grade: eight days after inoculation; for Insecticidal effect on common cutworm (Test Example 2), judged grade / Insecticidal effect (Test Example 2), judged from mortality: cabbage leaf dip; for Insecticidal effect on common cutworm (Test Example 2), judged grade: second-instar larvae; for Insecticidal effect (Test Example 2), judged from mortality: 8 days after inoculation
Procedure, shortened: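 Insecticidal effect was rated from percent mortality of second-instar larvae exposed to air-dried treatment at 25° C for 8 days.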

[4] = judged by the mortality criterion of Test Example 1
[5] = third-instar larvae of rice leafroller
[6] = second-instar larvae of common cutworm
[7] = mortality judged by criterion of Test Example 1
[8] = rice leafroller third-instar larvae
[9] = common cutworm second-instar larvae

Compound: CSc1ccc(NC(=O)c2cccc(Br)c2C(=O)NC(C)C)c(C)c1 [compound 296]
- Insecticidal effect, Test Example 1 [1, 4]: A (100)
- Insecticidal effect, Test Example 3 [2, 5]: A (100)
- Insecticidal effect, Test Example 2 [3, 6]: A (100)

Compound: CC(C)NC(=O)c1c(Cl)cccc1C(=O)Nc1ccc(SC(F)(F)C(F)F)cc1 [compound 102]
- Insecticidal effect, Test Example 1 [1, 4]: A (100)
- Insecticidal effect, Test Example 3 [2, 5]: A (100)
- Insecticidal effect, Test Example 2 [3, 6]: D (79-50)

Compound: Cc1cc(C(F)(F)C(F)(F)F)ccc1NC(=O)c1cccc(Cl)c1C(=O)NCC(C)O (stereo not drawn) [compound 1315]
- Insecticidal effect, Test Example 1 [1, 7]: A (100)
- Insecticidal effect, Test Example 3 [2, 8]: A (100)
- Insecticidal effect, Test Example 2 [3, 9]: A (100)

Compound: Cc1cc(OC(F)(F)C(F)C(F)(F)F)ccc1NC(=O)c1cccc(Cl)c1C(=O)NC(C)C (stereo not drawn) [compound 146]
- Insecticidal effect, Test Example 1 [1, 4]: A (100)
- Insecticidal effect, Test Example 3 [2, 5]: A (100)
- Insecticidal effect, Test Example 2 [3, 6]: A (100)

Compound: Cc1cc(OC(F)(F)C(Cl)(Cl)Cl)ccc1NC(=O)c1cccc(F)c1C(=O)NC(C)C [compound 501]
- Insecticidal effect on diamondback moth (Test Example 1), judged grade [1]: A (100)
- Insecticidal effect on rice leafroller (Test Example 3), judged grade [2]: A (100)
- Insecticidal effect on common cutworm (Test Example 2), judged grade [3]: A (100)

Compound: CC(C)NC(=O)c1c(I)cccc1C(=O)Nc1ccc(OC(F)F)c(F)c1 [compound 382]
- Insecticidal effect, Test Example 1 [1, 4]: A (100)
- Insecticidal effect, Test Example 3 [2, 5]: A (100)
- Insecticidal effect, Test Example 2 [3, 6]: B (99-90)

Compound: CCCNC(=O)c1c(F)cccc1C(=O)Nc1ccc(C(F)(F)C(F)(F)F)cc1F [compound 1512]
- Insecticidal effect (Test Example 1), judged from mortality [1]: A (100)
- Insecticidal effect (Test Example 3), judged from mortality [2, 5]: A (100)
- Insecticidal effect (Test Example 2), judged from mortality [3, 6]: A (100)

Compound: CC(C)NC(=O)c1c(Br)cccc1C(=O)Nc1ccc(C(F)(F)F)cc1Cl [compound 276]
- Insecticidal effect, Test Example 1 [1, 4]: A (100)
- Insecticidal effect, Test Example 3 [2, 5]: A (100)
- Insecticidal effect, Test Example 2 [3, 6]: A (100)

Compound: Cc1cc(Oc2cccc(C(F)(F)F)c2)ccc1NC(=O)c1cccc(Br)c1C(=O)NC(C)C [compound 297]
- Insecticidal effect, Test Example 1 [1, 4]: A (100)
- Insecticidal effect, Test Example 3 [2, 5]: B (99-90)
- Insecticidal effect, Test Example 2 [3, 6]: A (100)

Compound: Cc1cc(OC(F)F)ccc1NC(=O)c1cccc(Cl)c1C(=O)NC1CC1 [compound 849]
- Insecticidal effect on diamondback moth (Test Example 1), judged grade [1]: A (100)
- Insecticidal effect on rice leafroller (Test Example 3), judged grade [2]: A (100)
- Insecticidal effect on common cutworm (Test Example 2), judged grade [3]: B (99-90)

Compound: CC(C)NC(=O)c1c(I)cccc1C(=O)Nc1ccc2nc(C(F)(F)C(F)(F)C(F)(F)F)oc2c1 [compound 1636]
- Insecticidal effect (Test Example 1), judged from mortality [1]: A (100)
- Insecticidal effect (Test Example 3), judged from mortality [2, 5]: A (100)
- Insecticidal effect (Test Example 2), judged from mortality [3, 6]: D (79-50)

Compound: CC(C)NC(=O)c1c(Cl)cccc1C(=O)Nc1ccc2c(c1)nc(C(F)(F)F)n2C [compound 167]
- Insecticidal effect, Test Example 1 [1, 4]: A (100)
- Insecticidal effect, Test Example 3 [2, 5]: A (100)
- Insecticidal effect, Test Example 2 [3, 6]: A (100)

Compound: CC(C)NC(=O)c1c(C(=O)Nc2ccc(C(F)(F)C(F)(F)F)cc2)cccc1[N+](=O)[O-] [compound 890]
- Insecticidal effect on diamondback moth (Test Example 1), judged grade [1]: A (100)
- Insecticidal effect on rice leafroller (Test Example 3), judged grade [2]: A (100)
- Insecticidal effect on common cutworm (Test Example 2), judged grade [3]: A (100)

Compound: Cc1cc(Oc2ccc(C(F)(F)F)cn2)ccc1NC(=O)c1cccc(Cl)c1C(=O)NC(C)C [compound 158]
- Insecticidal effect, Test Example 1 [1, 4]: A (100)
- Insecticidal effect, Test Example 3 [2, 5]: A (100)
- Insecticidal effect, Test Example 2 [3, 6]: A (100)

Compound: Cc1c(NC(=O)c2c(F)cccc2C(=O)NC(C)C)cccc1OC(F)F [compound 558]
- Insecticidal effect on diamondback moth (Test Example 1), judged grade [1]: A (100)
- Insecticidal effect on rice leafroller (Test Example 3), judged grade [2]: A (100)
- Insecticidal effect on common cutworm (Test Example 2), judged grade [3]: A (100)

Compound: CCNC(=O)c1cccc(I)c1C(=O)Nc1ccc(C(F)(C(F)(F)F)C(F)(F)F)cc1C [compound 1074]
- Insecticidal effect, Test Example 1 [1, 7]: A (100)
- Insecticidal effect, Test Example 3 [2, 8]: A (100)
- Insecticidal effect, Test Example 2 [3, 9]: A (100)

Compound: Cc1cc(OC(F)F)ccc1NC(=O)c1cccc(I)c1C(=O)NCc1ccccc1 [compound 1430]
- Insecticidal effect, Test Example 1 [1, 7]: A (100)
- Insecticidal effect, Test Example 3 [2, 8]: A (100)
- Insecticidal effect, Test Example 2 [3, 9]: D (79-50)

Compound: CC(C)NC(=O)c1c(Cl)cccc1C(=O)Nc1ccc2oc(C(F)(F)F)nc2c1 [compound 165]
- Insecticidal effect, Test Example 1 [1, 4]: A (100)
- Insecticidal effect, Test Example 3 [2, 5]: C (89-80)
- Insecticidal effect, Test Example 2 [3, 6]: B (99-90)

Compound: CCN(CC)C(=O)c1c(I)cccc1C(=O)Nc1ccc(C(F)(F)F)cc1C [compound 1144]
- Insecticidal effect, Test Example 1 [1, 7]: A (100)
- Insecticidal effect, Test Example 3 [2, 8]: A (100)
- Insecticidal effect, Test Example 2 [3, 9]: A (100)

Compound: CCNC(=O)c1c(C(=O)Nc2cc(Cl)ccc2C)cccc1[N+](=O)[O-] [compound 10]
- Insecticidal effect, Test Example 1 [1, 4]: A (100)
- Insecticidal effect, Test Example 3 [2, 5]: D (79-50)
- Insecticidal effect, Test Example 2 [3, 6]: D (79-50)

Compound: CC(C)NC(=O)c1c(Cl)cccc1C(=O)Nc1ccc2c(c1)OC(F)C(F)(F)O2 (stereo not drawn) [compound 1147]
- Insecticidal effect, Test Example 1 [1, 7]: A (100)
- Insecticidal effect, Test Example 3 [2, 8]: A (100)
- Insecticidal effect, Test Example 2 [3, 9]: A (100)

Compound: Cc1ccc(NC(=O)c2cccc([N+](=O)[O-])c2C(=O)NC(C)C)c(C)c1 [compound 648]
- Insecticidal effect on diamondback moth (Test Example 1), judged grade [1]: A (100)
- Insecticidal effect on rice leafroller (Test Example 3), judged grade [2]: A (100)
- Insecticidal effect on common cutworm (Test Example 2), judged grade [3]: D (79-50)

Compound: Cc1cc(C(F)(F)F)ccc1NC(=O)c1c(I)cccc1C(=O)NC(C)C [compound 436]
- Insecticidal effect, Test Example 1 [1, 4]: A (100)
- Insecticidal effect, Test Example 3 [2, 5]: A (100)
- Insecticidal effect, Test Example 2 [3, 6]: B (99-90)

Compound: Cc1cc(OC(F)(F)C(F)F)ccc1NC(=O)c1cccc(Cl)c1C(=O)NC(C)(C)C [compound 1061]
- Insecticidal effect, Test Example 1 [1, 7]: A (100)
- Insecticidal effect, Test Example 3 [2, 8]: A (100)
- Insecticidal effect, Test Example 2 [3, 9]: A (100)

Compound: CC(C)NC(=O)c1c(C(=O)Nc2ccc(OC(F)F)cc2)cccc1[N+](=O)[O-] [compound 617]
- Insecticidal effect on diamondback moth (Test Example 1), judged grade [1]: A (100)
- Insecticidal effect on rice leafroller (Test Example 3), judged grade [2]: A (100)
- Insecticidal effect on common cutworm (Test Example 2), judged grade [3]: A (100)

Compound: Cc1cc(OC(F)(F)C(F)F)c(Cl)cc1NC(=O)c1c(Cl)cccc1C(=O)NC(C)C [compound 246]
- Insecticidal effect, Test Example 1 [1, 4]: A (100)
- Insecticidal effect, Test Example 3 [2, 5]: B (99-90)
- Insecticidal effect, Test Example 2 [3, 6]: B (99-90)

Compound: Cc1ccc(NC(=O)c2cccc(Br)c2C(=O)NC(C)C)c(C)c1OC(F)F [compound 284]
- Insecticidal effect, Test Example 1 [1, 4]: A (100)
- Insecticidal effect, Test Example 3 [2, 5]: A (100)
- Insecticidal effect, Test Example 2 [3, 6]: A (100)

Compound: Cc1cc(OC(F)(F)F)ccc1NC(=O)c1ccc(I)cc1C(=O)NC(C)C [compound 1246]
- Insecticidal effect, Test Example 1 [1, 7]: A (100)
- Insecticidal effect, Test Example 3 [2, 8]: A (100)
- Insecticidal effect, Test Example 2 [3, 9]: A (100)

Compound: Cc1cc(Br)ccc1NC(=O)c1cccc(Cl)c1C(=O)NC(C)C [compound 121]
- Insecticidal effect, Test Example 1 [1, 4]: A (100)
- Insecticidal effect, Test Example 3 [2, 5]: A (100)
- Insecticidal effect, Test Example 2 [3, 6]: A (100)

Compound: Cc1cc(C(F)(F)C(F)(F)F)ccc1NC(=O)c1cccc(I)c1C(=O)NC(C)CO (stereo not drawn) [compound 1300]
- Insecticidal effect, Test Example 1 [1, 7]: A (100)
- Insecticidal effect, Test Example 3 [2, 8]: A (100)
- Insecticidal effect, Test Example 2 [3, 9]: A (100)

Compound: CC(C)NC(=O)c1c(I)cccc1C(=O)Nc1ccc2c(c1Cl)OC(F)C(F)(F)O2 (stereo not drawn) [compound 1733]
- Insecticidal effect (Test Example 1), judged from mortality [1]: A (100)
- Insecticidal effect (Test Example 3), judged from mortality [2, 5]: A (100)
- Insecticidal effect (Test Example 2), judged from mortality [3, 6]: A (100)

Compound: CCc1cc(I)ccc1NC(=O)c1cccc(I)c1C(=O)NC(C)C [compound 951]
- Insecticidal effect, Test Example 1 [1, 7]: A (100)
- Insecticidal effect, Test Example 3 [2, 8]: A (100)
- Insecticidal effect, Test Example 2 [3, 9]: A (100)

Reference: patent US6362369B1, “Phthalic acid diamide derivatives fluorine-containing aniline compounds as starting material, agricultural and horticultural insecticides, and a method for application of the insecticides” (Nihon Nohyaku Co., Ltd., priority 1997, dated 2002)
